Source: ChEMBL document CHEMBL1201862, “PubChem BioAssay data set” (2004)
One block for each compound: values may come before it. Calls of active or inactive are those of the source.

Tests used:
[1] = tested on: Streptococcus sp. 'group A'; assay: Streptococcus pyogenes SK(-)GAS viability under kanamycin – luminescence, BacTiterGlo, confirmation, counter-screen for streptokinase expression inhibitor project, dose response (AID 1900); assay type: functional, organism-based
Streptococcus = assay: GAS UMAA2166 growth inhibition – luminescence, BacTiterGlo, counter-screen for streptokinase expression inhibitor project, dose response (AID 1915); assay type: functional, organism-based;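 note: potency for reduction of bacterial viability or growth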
[2] = HGIII-sPLA2 enzyme inhibition potency – biochemical, QFRET, IC50, dose response (AID 743457);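 note: green fluorescence rise as the enzyme cleaves BODIPY PC-A2 in liposomes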
Beta-galactosidase = Beta-galactosidase (Escherichia coli, UniProt Q8VNN2); assay: Dose response counterscreen for EBI2 assay utilizing the enzyme, b-galactosidase.; assay type: functional
[3] = Late stage assay provider results from the probe development effort to identify inhibitors of Protein Arginine Deaminase 4 (PAD4): cell-based absorbance-based assay to assess cytotoxicity of test compounds.; assay type: functional
[4] = target: 1-phosphatidylinositol 4,5-bisphosphate phosphodiesterase beta-3 (Homo sapiens, UniProt Q01970); assay: Fluorescence-based biochemical high throughput dose response assay to identify inhibitors of phospholipase C isozymes (PLC-B3).
[5] = target: 1-phosphatidylinositol 4,5-bisphosphate phosphodiesterase gamma-1 (Homo sapiens, UniProt P19174); assay: Counterscreen for inhibitors of phospholipase C isozymes (PLC-B3): Fluorescence-based biochemical high throughput dose response assay to identify inhibitors of phospholipase C isozymes (PLC-gamma1).
[6] = target: T1, DNA repair protein RAD52 homolog (Homo sapiens, UniProt P43351); assay type: functional, biochemical
T1 sequence (P43351 whole entry): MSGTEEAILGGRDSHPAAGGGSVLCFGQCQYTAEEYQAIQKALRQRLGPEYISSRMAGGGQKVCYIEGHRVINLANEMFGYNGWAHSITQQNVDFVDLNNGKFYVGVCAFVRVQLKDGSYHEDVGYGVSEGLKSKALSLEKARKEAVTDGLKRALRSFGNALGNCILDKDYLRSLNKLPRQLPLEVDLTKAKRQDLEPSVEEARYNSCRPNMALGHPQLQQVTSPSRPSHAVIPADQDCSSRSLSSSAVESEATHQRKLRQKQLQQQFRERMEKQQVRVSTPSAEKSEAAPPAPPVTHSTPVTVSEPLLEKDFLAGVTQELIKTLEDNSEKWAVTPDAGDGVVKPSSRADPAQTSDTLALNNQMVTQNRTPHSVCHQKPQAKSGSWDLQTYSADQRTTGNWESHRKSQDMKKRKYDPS

[7] = target: T2, DNA repair and recombination protein RAD54-like (Homo sapiens, UniProt Q92698); assay: RAD54 Holliday junction migration blockers – biochemical, fluorescence, cherry-picked samples, dose series, confirmation (AID 651657); assay type: functional
T2 sequence (Q92698 whole entry): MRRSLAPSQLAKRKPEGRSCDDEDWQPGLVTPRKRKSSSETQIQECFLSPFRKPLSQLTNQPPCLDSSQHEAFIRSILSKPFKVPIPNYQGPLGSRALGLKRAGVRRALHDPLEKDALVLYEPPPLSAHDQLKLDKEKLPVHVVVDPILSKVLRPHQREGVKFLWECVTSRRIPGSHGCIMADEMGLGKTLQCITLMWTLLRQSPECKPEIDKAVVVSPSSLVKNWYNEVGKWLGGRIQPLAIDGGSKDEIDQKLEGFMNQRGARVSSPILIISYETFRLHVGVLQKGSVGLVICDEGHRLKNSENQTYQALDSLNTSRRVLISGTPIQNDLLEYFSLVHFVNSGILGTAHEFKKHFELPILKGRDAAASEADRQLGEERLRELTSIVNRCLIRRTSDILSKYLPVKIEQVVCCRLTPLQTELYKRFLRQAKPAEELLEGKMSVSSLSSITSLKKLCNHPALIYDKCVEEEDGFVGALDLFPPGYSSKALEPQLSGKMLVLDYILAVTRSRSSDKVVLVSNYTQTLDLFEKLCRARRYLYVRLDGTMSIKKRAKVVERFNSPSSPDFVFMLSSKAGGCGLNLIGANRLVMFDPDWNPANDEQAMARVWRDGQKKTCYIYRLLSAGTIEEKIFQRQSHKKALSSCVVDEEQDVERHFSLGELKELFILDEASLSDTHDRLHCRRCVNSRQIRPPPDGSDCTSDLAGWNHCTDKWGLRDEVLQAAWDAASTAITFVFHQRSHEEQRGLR

Protein S100-A4 = Protein S100-A4 (Homo sapiens, UniProt P26447); assay: human S100A4 peptide interaction inhibition curves – biochemical, fluorescence polarization, cherry-picked hits, dose response (AID 687001); assay type: functional
[8] = viability loss in A549 lung cancer cells – cell-based, cherry-picks, […], cytotoxicity control, dose response (AID 1053119); assay type: functional
[9] = viability loss in HepG2 hepatoma cells – cell-based, cherry-picks, set 5, cytotoxicity control, dose response (AID 1053118); assay type: functional
[10] = viability loss in HEK293 kidney cells – cell-based, cherry-picks, set 5, cytotoxicity control, dose response (AID 1053117); assay type: functional
cells = conditions: HEK293
[11] = blockade of melanocortin 4 receptor signaling – cell-based, plate reader, cherry pick, counter-screen for LGR2 antagonist project, dose response (AID 743444); assay type: functional;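 note: transfected HEK 293 cells stimulated with alpha-MSH peptide; potency of inhibitors of the alpha-MSH evoked signal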
[12] = blockers of bursicon-stimulated LGR2 cAMP reporter – cell-based, HEK293, CRE-luciferase reporter, cherry pick, set 2, dose response (AID 743343); assay type: functional;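 note: transfected cells were stimulated with diluted bursicon conditioned medium after compound addition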
[13] = toxicity toward HepG2 liver cells – cell-based, plate reader, cherry-pick, antagonist series, cytotoxicity control, dose response (AID 743416); assay type: functional
[14] = viability loss in HEK293 cells – cell-based, plate reader, cherry-picked samples, cytotoxicity control, dose response (AID 743446); assay type: functional

Sequence of Beta-galactosidase (Q8VNN2 whole entry): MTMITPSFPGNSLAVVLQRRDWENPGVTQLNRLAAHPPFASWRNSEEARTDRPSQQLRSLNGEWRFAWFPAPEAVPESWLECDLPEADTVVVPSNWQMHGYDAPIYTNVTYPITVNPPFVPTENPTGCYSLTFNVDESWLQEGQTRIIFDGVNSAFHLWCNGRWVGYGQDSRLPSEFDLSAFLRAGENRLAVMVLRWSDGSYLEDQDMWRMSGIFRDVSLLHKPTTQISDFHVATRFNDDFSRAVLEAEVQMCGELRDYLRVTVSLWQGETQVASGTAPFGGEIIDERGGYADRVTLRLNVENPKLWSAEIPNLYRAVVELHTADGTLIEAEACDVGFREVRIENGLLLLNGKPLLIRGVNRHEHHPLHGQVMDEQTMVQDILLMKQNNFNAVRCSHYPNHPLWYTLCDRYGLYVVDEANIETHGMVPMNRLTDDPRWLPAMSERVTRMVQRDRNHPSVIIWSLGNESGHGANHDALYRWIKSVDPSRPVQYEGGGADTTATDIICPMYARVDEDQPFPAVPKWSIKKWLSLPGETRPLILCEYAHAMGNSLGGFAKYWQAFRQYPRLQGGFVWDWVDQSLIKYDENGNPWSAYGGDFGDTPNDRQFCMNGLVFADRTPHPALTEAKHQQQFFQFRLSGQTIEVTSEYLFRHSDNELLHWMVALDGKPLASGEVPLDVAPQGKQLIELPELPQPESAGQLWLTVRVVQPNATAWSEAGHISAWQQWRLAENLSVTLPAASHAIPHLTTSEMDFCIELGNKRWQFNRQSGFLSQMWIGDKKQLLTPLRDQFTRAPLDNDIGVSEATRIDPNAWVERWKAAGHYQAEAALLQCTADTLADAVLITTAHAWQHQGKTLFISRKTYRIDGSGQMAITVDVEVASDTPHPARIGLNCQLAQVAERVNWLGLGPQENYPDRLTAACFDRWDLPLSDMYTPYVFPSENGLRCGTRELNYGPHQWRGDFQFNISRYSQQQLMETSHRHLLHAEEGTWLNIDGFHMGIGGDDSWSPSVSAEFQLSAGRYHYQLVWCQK
Sequence of 1-phosphatidylinositol 4,5-bisphosphate phosphodiesterase beta-3 (Q01970 whole entry): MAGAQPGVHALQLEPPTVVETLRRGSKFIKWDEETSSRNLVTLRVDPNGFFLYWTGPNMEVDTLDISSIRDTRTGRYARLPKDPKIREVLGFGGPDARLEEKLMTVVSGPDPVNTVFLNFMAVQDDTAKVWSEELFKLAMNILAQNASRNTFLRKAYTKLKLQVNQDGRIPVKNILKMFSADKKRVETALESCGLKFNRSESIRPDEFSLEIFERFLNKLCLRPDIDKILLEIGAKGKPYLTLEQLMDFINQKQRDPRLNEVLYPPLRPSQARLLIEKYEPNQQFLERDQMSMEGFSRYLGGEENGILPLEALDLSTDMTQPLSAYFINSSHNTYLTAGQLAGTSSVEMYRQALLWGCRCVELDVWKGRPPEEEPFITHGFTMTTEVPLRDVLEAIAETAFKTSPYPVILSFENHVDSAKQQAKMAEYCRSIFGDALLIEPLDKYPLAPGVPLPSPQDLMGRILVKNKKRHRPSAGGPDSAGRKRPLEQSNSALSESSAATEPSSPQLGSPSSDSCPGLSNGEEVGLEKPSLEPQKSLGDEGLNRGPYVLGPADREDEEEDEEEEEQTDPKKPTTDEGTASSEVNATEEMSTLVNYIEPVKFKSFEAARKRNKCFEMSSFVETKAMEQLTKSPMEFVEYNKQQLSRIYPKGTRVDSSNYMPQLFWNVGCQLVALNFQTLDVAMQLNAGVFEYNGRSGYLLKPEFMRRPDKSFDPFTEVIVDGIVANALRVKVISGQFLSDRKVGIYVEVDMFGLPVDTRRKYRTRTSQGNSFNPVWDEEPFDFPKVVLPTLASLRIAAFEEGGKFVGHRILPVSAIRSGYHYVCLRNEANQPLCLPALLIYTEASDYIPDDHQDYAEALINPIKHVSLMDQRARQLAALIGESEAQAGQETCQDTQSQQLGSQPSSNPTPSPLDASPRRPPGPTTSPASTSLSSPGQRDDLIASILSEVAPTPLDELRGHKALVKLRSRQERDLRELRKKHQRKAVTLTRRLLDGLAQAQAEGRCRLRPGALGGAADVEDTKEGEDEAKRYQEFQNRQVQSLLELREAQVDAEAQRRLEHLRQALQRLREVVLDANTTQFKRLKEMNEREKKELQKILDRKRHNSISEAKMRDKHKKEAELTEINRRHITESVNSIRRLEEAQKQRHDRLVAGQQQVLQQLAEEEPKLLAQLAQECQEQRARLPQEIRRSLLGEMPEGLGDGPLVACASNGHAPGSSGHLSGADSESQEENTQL
Sequence of Protein S100-A4 (P26447 whole entry): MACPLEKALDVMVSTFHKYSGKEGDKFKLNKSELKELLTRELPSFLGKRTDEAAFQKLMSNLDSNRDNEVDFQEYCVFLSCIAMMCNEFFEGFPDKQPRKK
Sequence of 1-phosphatidylinositol 4,5-bisphosphate phosphodiesterase gamma-1 (P19174 whole entry): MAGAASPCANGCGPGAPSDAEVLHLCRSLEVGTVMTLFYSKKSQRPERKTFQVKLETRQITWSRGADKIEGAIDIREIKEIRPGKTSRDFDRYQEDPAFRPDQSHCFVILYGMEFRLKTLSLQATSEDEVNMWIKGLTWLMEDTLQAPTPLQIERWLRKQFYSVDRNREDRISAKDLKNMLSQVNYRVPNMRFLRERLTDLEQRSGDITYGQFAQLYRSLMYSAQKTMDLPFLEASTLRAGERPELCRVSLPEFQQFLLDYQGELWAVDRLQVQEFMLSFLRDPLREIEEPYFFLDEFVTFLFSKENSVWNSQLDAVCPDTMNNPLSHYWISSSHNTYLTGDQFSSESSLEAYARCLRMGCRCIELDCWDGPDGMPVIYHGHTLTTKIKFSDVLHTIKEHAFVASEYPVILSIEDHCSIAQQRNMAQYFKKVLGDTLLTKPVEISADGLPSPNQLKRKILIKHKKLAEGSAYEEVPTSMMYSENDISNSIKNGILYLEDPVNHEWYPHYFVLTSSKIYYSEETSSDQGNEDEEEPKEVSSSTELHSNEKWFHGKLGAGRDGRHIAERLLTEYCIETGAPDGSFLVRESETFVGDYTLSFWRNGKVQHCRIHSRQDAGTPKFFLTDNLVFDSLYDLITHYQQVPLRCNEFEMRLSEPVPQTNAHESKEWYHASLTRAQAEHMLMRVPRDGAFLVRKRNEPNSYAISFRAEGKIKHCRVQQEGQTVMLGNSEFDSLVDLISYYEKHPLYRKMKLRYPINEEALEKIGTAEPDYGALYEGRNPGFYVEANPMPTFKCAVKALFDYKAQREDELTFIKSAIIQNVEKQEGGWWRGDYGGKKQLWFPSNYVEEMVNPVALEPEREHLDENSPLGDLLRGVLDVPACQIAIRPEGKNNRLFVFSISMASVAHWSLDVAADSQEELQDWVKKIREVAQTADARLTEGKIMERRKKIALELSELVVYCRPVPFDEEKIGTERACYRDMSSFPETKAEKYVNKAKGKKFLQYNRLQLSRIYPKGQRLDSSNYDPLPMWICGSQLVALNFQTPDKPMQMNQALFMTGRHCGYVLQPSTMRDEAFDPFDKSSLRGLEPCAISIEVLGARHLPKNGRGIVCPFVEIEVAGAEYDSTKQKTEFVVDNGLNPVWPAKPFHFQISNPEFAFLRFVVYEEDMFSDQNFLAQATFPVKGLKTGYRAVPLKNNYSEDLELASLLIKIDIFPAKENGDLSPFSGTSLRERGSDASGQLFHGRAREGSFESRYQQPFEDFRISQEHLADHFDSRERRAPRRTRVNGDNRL

SMILES: Cc1ccc(C(=O)NC(=S)NNC(=O)c2ccccc2O)cc1
EC50 [1]: 1.29 µM (active)
EC50 (Streptococcus): 5.63 µM (active)
IC50 [2]: > 122 µM (inactive)

IC50 (Beta-galactosidase): > 80 µM (inactive)
SMILES: O=C(/C=C/c1ccc([N+](=O)[O-])cc1)N1CCN(S(=O)(=O)c2cccs2)CC1

SMILES: NC1=CC(=O)c2ccc(-c3cccc(C(=O)O)n3)nc2C1=O
CC50 [3]: 26.5 µM (inactive)

IC50 [4]: > 122 µM (inactive)
IC50 [5]: 12.5 µM (inactive)
SMILES: O=C1C[S+]([O-])CN1c1ccc(Oc2ccccc2)cc1 (stereo not drawn)

AC50 [6]: 2.45 µM (active)
AC50 [7]: 24 µM (active)
AC50 (Protein S100-A4): 7.12 µM (active)
SMILES: Cc1cccc(-c2cc(N3CCCN(C)CC3)n3nccc3n2)c1

SMILES: C[C@H](CO)N1C[C@H](C)[C@@H](CN(C)C(=O)Nc2cccc3ccccc23)Oc2c(NC(=O)Nc3ccc(C(F)(F)F)cc3)cccc2C1=O
AC50 [8]: > 52 µM (inactive)
AC50 [9]: 34.4 µM (active)
AC50 [10]: > 52 µM (inactive)

SMILES: CCOCCCN=C(S)N1CCCN(c2nc3cc(C)c(C)cc3cc2C#N)CC1
AC50 (cells): > 52 µM (inactive)

SMILES: COc1ccc(NC(=O)Nc2cccc([N+](=O)[O-])c2)cc1Cl
AC50 [11]: 34.3 µM (active)
AC50 [12]: 33.1 µM (active)
AC50 [13]: 26.8 µM (active)
AC50 [14]: > 52 µM (inactive)
